For 31 molecules, IC50 results are on record in patent EP0520336A2, “Aldehyde derivatives and their use as calpain inhibitors” (FUJIREBIO Inc., priority 1991, dated 1992).

Where a SMILES comes first, the peptide text is derived from it. [ ]: non-standard residue; d: D form. The star is where a group is joined. ξ: configuration not given here. Cbz = O=C(OCc1ccccc1)*; ξAze = O=C(O)C1CCN1

One assay concerns Calpain. The assay can be described thus: Measurement of calpain inhibiting effect (casein hydrolysis, IC50 by Probit). The assay is classed as biochemical, Japanese white rabbit. The following applies: 30 °C for 30 minutes, pH = 7.5, IC50 by method of Probit. How it is done:
Test Example 1 Measurement of Calpain Inhibiting Effect
Calpain was separated from a skeletal muscle of a Japanese white rabbit and partially purified according to the method of Tsuji and Imahori as described in J.Biochem. 90, 233-240 (1981), whereby the calpain for use in a test for investigating the calpain inhibiting effect (i.e., the inhibitory effect on calpain activity) of the aldehyde compounds according to the present invention was prepared.
The calpain inhibiting effect was measured in accordance with the method of Yoshimura et al. as described in J. Biol. Chem. 258, 8883-8889 (1983).
Each assay mixture was prepared by mixing 0.05 ml of a 4% casein solution, 0.05 ml of a 50 mM cysteine solution, 0.05 ml of a calpain solution, 0.025 ml of purified water, 0.025 ml of a 10% dimethyl sulfoxide solution containing each compound shown in Table 15 and 0.25 ml of a 200 mM imidazole hydrochloric acid buffer solution (pH = 7.5).
The thus prepared assay mixture was preincubated at 30 ° C for 3 minutes. The reaction was started by the addition of 0.05 ml of a 50 mM calcium chloride solution to the above mixture. After the incubation at 30 °C for 30 minutes, the reaction was terminated by the addition of 0.5 ml of 5% trichloroacetic acid.
The amount of a trichloroacetic-acid-soluble protein produced by hydrolysis of casein by calpain was measured by the spectrophotometric analysis in accordance with the method of Ross and Schatz as described in Anal. Biochem. 54, 304-306 (1973), and the absorbance (a) of each sample was measured.
The absorbance (b) of a blank sample which was treated similarly without any of the aldehyde compounds of the present invention, dissolved in a 10% dimethyl sulfoxide solution, was measured.
The inhibition of calpain activity was calculated in accordance with the formula [(b-a)/b] X 100, and the amount of each aldehyde compound necessary to inhibit calpain activity by 50% [IC50] was calculated according to the method of Probit.

The subject of assay [1] is Platelet rich plasma (PRP). The assay can be described thus: Measurement of platelet-aggregation inhibiting effect (collagen-induced aggregation in platelet rich plasma). Format: cell-based, Japanese white rabbit. The following applies: collagen-induced aggregation in rabbit PRP, preincubated at 37°C for 5 minutes, IC50 by method of Probit. How it is done:
Test Example 2 Measurement of Platelet-aggregation Inhibiting Effect
Platelet rich plasma (PRP) was prepared and the platelet aggregation was measured in accordance with the method of Born and Cross as described in J. Phystol. 168, 178-195 (1963).
Blood of a Japanese white rabbit was drawn from a carotid artery of the rabbit. 9 parts by volume of the blood were mixed with 1 part by volume of a 3.8% aqueous solution of sodium citrate. The mixture was immediately centrifuged at 200 x g at 20 °C for 15 minutes, and PRP was obtained in the supernate. The number of platelets was calculated by use of an electronic cell counter (MEK-4150 manufactured by Nihon Kohden Kabushiki Kaisha). PRP with 55 X 10^4 or more platelets per 1 µl was employed in the tests.
10 µl of a test solution containing any of the aldehyde compounds of the present invention was added to 200 µl of PRP. The mixture was preincubated at 37°C for 5 minutes. To this mixture, 10 µl of collagen (22 µg/ml) was added to cause the aggregation. The aggregation was measured by Agricometer (NKK, PAT-4A).
In preparing the above test solution, each compound synthesized in the previously mentioned Examples as shown in Table 16 was dissolved in combined dimethyl sulfoxide and polyoxyethylene 60 hardened castor oil in ethanol. The mixture was diluted with an isotonic saline and the final concentration of the dimethyl sulfoxide and polyoxyethylene 60 hardened castor oil contained in the above mixture was adjusted to less than 1 %.
The inhibitory activity of each aldehyde compound on platelet aggregation was expressed by percentages compared with a blank test defined as 100% which was performed without any of the aldehyde compounds.
The amount of each aldehyde compound necessary to inhibit the platelet aggregation by 50% [IC50] was calculated according to the method of Probit.

Setting [2] is: Oryctolagus cuniculus, Platelet.

By IC50 is commonly meant the concentration at which inhibition is half-maximal. Higher therefore signals weaker potency in that assay. In the case of `O=C[C@H](Cc1ccccc1)NC(=O)C1CCN(C(=O)OCc2ccccc2)CC1` [1-7, 1-benzyloxycarbonylpiperidine-4-carboxylic acid-(1S)-(1-formyl-2-phenyl)ethylamide], in the assay on Calpain, the IC50 is 3000 nM.
`O=C[C@H](Cc1ccccc1)NC(=O)C1CCN(C(=O)CCCc2ccccc2)CC1` [1-26, 1-(4-phenylbutyryl)piperidine-4-carboxylic acid-(1S)-(1-formyl-2-phenyl)ethylamide]: in the assay with Calpain, the IC50 turned out to be 890 nM.
Still for that read-out and setting: the result for `O=C[C@H](Cc1ccccc1)NC(=O)C1CCN(C(=O)c2ccc3ccccc3c2)CC1` [1-28, 1-(2-naphthoyl)piperidine-4-carboxylic acid-(1S)-(1-formyl-2-phenyl)ethylamide] reads 220 nM; that for `Cc1ccc(S(=O)(=O)N2CCC(C(=O)N[C@H](C=O)Cc3ccccc3)CC2)cc1` [1-30, 1-(4-methylphenylsulfonyl)piperidine-4-carboxylic acid-(1S)-(1-formyl-2-phenyl)ethylamide], 1100 nM; that for `O=C[C@H](Cc1ccccc1)NC(=O)C1CCN(C(=O)c2cccs2)CC1` [1-32, 1-(2-thienylcarbonyl)piperidine-4-carboxylic acid-(1S)-(1-formyl-2-phenyl)ethylamide], 2000 nM.
In turn, `O=C[C@H](Cc1ccccc1)NC(=O)C1CCN(S(=O)(=O)c2ccc3ccccc3c2)CC1` [1-34, 1-(2-naphthylsulfonyl)piperidine-4-carboxylic acid-(1S)-(1-formyl-2-phenyl)ethylamide] had an IC50 with Calpain of 170 nM.
In turn, `O=C[C@H](Cc1ccccc1)NC(=O)C1CCN(C(=O)c2ccc(Cl)c(Cl)c2)CC1` [1-36, 1-(3,4-dichlorobenzoyl)piperidine-4-carboxylic acid-(1S)-(1-formyl-2-phenyl)ethylamide] displayed an IC50 in the assay with Calpain of 780 nM.
`O=C[C@H](Cc1ccccc1)NC(=O)C1CCN(C(=O)C(c2ccccc2)c2ccccc2)CC1` [1-38, 1-(diphenylacetyl)piperidine-4-carboxylic acid-(1S)-(1-formyl-2-phenyl)ethylamide] registered a half-inhibitory concentration (IC50) with Calpain of 1900 nM. This IC50 is about 2.4-fold higher than that of the molecule before.
Molecule `O=C[C@H](Cc1ccccc1)NC(=O)C1CCN(C(=O)C2c3ccccc3-c3ccccc32)CC1` [1-39, 1-(9-fluorenylcarbonyl)piperidine-4-carboxylic acid-(1S)-(1-formyl-2-phenyl)ethylamide] yielded an IC50 with Calpain of 2300 nM.
Take `O=C[C@H](Cc1ccccc1)NC(=O)C1CCN(C(=O)Nc2ccccc2)CC1` [1-41, 1-(N-phenylcarbamoyl)piperidine-4-carboxylic acid-(1S)-(1-formyl-2-phenyl)ethylamide]: it took 940 nM to reach half-maximal inhibition in the assay on Calpain (IC50).
For `O=C[C@H](CCSCc1ccccc1Cl)NC(=O)C1CCN(C(=O)c2ccc3ccccc3c2)CC1` [1-51, 1-(2-naphthoyl)piperidine-4-carboxylic acid-(1S)-[1-formyl-3-(2-chlorobenzylthio)]propylamide], the results for the IC50 (with Calpain; in assay [1] (setting [2])) were 1400 nM and 10000 nM, respectively.
In the case of `O=C[C@H](CCSCc1ccc(Cl)cc1)NC(=O)C1CCN(C(=O)/C=C/c2ccccc2Cl)CC1` [1-62, 1-(2-chlorocinnamoyl)piperidine-4-carboxylic acid-(1S)-[1-formyl-3-(4-chlorobenzylthio)]-propylamide], the values for the IC50 (in the assay with Calpain; in assay [1] (setting [2])) were 1600 nM and 17000 nM, respectively.
The molecule `CC(C)C[C@H](OC(=O)Nc1cccc2ccccc12)C(=O)N[C@H](C=O)CCc1ccccc1` [2-13] came in with a 50% inhibitory concentration (IC50) in the assay on Calpain of 1230 nM.
Take `CSCC[C@@H](C=O)NC(=O)[C@H](CC(C)C)OC(=O)Nc1cccc2ccccc12` [2-14]: in the assay on Calpain, inhibition was half-maximal at 1900 nM (IC50).
In assay [1] (setting [2]), `CC(C)C[C@H](OC(=O)Nc1ccccc1)C(=O)N[C@H](C=O)CCSCc1ccc(Cl)cc1` [2-27] came in with an IC50 of 65000 nM.
For `CSCC[C@@H](C=O)NC(=O)C1CCN1C(=O)OCc1ccccc1` (stereo partly drawn) [Compound No. 1-1, (2R,2S)-1-benzyloxycarbonyl-azetidine-2-carboxylic acid-(1 S)-(1-formyl-3-methylthio)-propylamide] (Cbz-[ξAze]-Met-aldehyde), 6600 nM corresponded to half-maximal inhibition with Calpain (IC50).
For the molecule `O=C[C@H](Cc1ccccc1)NC(=O)C1CCN(C(=O)/C=C/c2ccccc2)CC1` [Compound No. 1-27, 1-cinnamoylpiperidine-4-carboxylic acid-(1S)-(1-formyl-2-phenyl)ethylamide], the IC50 is 750 nM with Calpain and 2900 nM in assay [1] (setting [2]).
In the case of `O=C[C@H](Cc1ccccc1)NC(=O)C1CCN(C(=O)/C=C/c2ccccc2Cl)CC1` [Compound No. 1-42, 1-(2-chlorocinnamoyl)piperidine-4-carboxylic acid-(1S)-(1-formyl-2-phenyl)ethylamide], the IC50 in the assay on Calpain worked out at 350 nM; in assay [1] (setting [2]) it was 23000 nM.
As to `O=C[C@H](Cc1ccccc1)NC(=O)C1CCN(C(=O)/C=C/c2cccc(Cl)c2)CC1` [Compound No. 1-43, 1-(3-chlorocinnamoyl)piperidine-4-carboxylic acid-(1S)-(1-formyl-2-phenyl)ethylamide], the IC50 with Calpain was found to be 560 nM.
On to `O=C[C@H](Cc1ccccc1)NC(=O)C1CCN(C(=O)/C=C/c2ccc(Cl)cc2)CC1` [Compound No. 1-44, 1-(4-chlorocinnamoyl)piperidine-4-carboxylic acid-(1S)-(1-formyl-2-phenyl)ethylamide], for which the IC50 with Calpain is 990 nM; in assay [1] (setting [2]) it was 47000 nM.
With `O=C[C@H](Cc1ccccc1F)NC(=O)C1CCN(C(=O)c2ccc3ccccc3c2)CC1` [Compound No. 1-55, 1-(2-naphthoyl)piperidine-4-carboxylic acid-(1S)-[1-formyl-2-(2-fluorophenyl)]ethylamide], in the assay on Calpain, the IC50 amounted to 630 nM.
`O=C[C@H](Cc1c[nH]c2ccccc12)NC(=O)C1CCN(C(=O)/C=C/c2ccccc2Cl)CC1` [Compound No. 1-58, 1-(2-chlorocinnamoyl)piperidine-4-carboxylic acid-(1S)-[1-formyl-2-(3-indolyl)]ethylamide]: the IC50 stood at 680 nM in the assay with Calpain and 22000 nM in assay [1] (setting [2]).
In the case of `O=C[C@H](Cc1ccc(OCc2ccccc2)cc1)NC(=O)C1CCN(C(=O)/C=C/c2ccccc2)CC1` [Compound No. 1-61, 1-cinnamoylpiperidine-4-carboxylic acid-(1S)-[1-formyl-2-(4-benzyloxyphenyl)]ethyl], the IC50 in the assay with Calpain came out at 880 nM; in assay [1] (setting [2]), 9600 nM.
Regarding `CSCC[C@@H](C=O)NC(=O)[C@H](CC(C)C)OC(=O)Nc1ccccc1` [Compound No. 2-3], the IC50 in the assay on Calpain came to 1600 nM.
The molecule `CC(C)C[C@H](OC(=O)Nc1ccccc1)C(=O)N[C@H](C=O)CCSCc1ccccc1F` [Compound No. 2-17] came in with an IC50 with Calpain of 3600 nM. Against the preceding molecule, the IC50 is about 2.2-fold higher.
The molecule `CC(C)C[C@H](OC(=O)Nc1cccc2ccccc12)C(=O)N[C@H](C=O)CCSCc1ccccc1F` [Compound No. 2-18] displayed an IC50 in the assay on Calpain of 580 nM.
Consider `CC(C)C[C@H](OC(=O)Nc1ccccc1)C(=O)N[C@H](C=O)Cc1ccccc1` [Compound No. 2-19], for which the IC50 in the assay on Calpain came to 590 nM; in assay [1] (setting [2]), 4200 nM.
`CC(C)C[C@H](OC(=O)Nc1cccc2ccccc12)C(=O)N[C@H](C=O)Cc1ccccc1` [Compound No. 2-20] yielded an IC50 in the assay on Calpain of 4400 nM.
The same measure, in the same setting: the result for `CSCC[C@@H](C=O)NC(=O)[C@@H](OC(=O)Nc1ccccc1)C(C)C` [Compound No. 2-21] reads 2000 nM; that for `CSCC[C@@H](C=O)NC(=O)[C@@H](OC(=O)Nc1cccc2ccccc12)C(C)C` [Compound No. 2-22], 3300 nM.
“L-N-benzyloxycarbonylleucine-(2S)-[1-formyl-3-(2-chlorophenyl)thio]propylamide [Compound No. 3-42]”: the IC50 came to 440 nM in the assay on Calpain and 94000 nM in assay [1].
